Measured values from patent publication US5431922A (Bristol-Myers Squibb Company, priority 1993, dated 1995).

Experiments:
[1] = test system: patients undergoing diazepam-withdrawal; conditions: human, in vivo; cited from earlier work
[2] = in vivo, cited from earlier work
rat = experiment: Rat forced swim test (antidepressant screening); format: in vivo
[3] = Johansson et al. 1971; cited from earlier work
[4] = pharmacologic testing; cited from earlier work
[5] = test system: diazepam-withdrawn animals; conditions: cited from earlier work

O=C1CC2(CCCC2)CC(=O)N1CCCCN1CCN(c2ncccn2)CC1 [Buspirone, 8-[4-[4-(2-pyrimidinyl)1-piperazinyl]butyl]-8-azaspiro(4,5)-decane-7,9-dione]
treatment of patients undergoing diazepam-withdrawal [1]: failed to adequately treat patients undergoing diazepam-withdrawal
biological half-life ([2]; human): 2-11 hours
activity in rat forced swim test (rat; given intracerebrally): active
activity in rat forced swim test (rat; given systemically): inactive

C=CCc1ccccc1OCC(O)CNC(C)C (stereo not shown) [alprenolol]
metabolism in controlled/extended release form vs conventional tablets (in words) [3]: more complete when it was administered in a controlled/extended release form than in conventional tablets

c1cnc(N2CCNCC2)nc1 [Example 1-PP, 1-(2-pyrimidinyl)piperazine]
elimination (in words) [2]: much slower elimination
anxiolytic potency relative to buspirone [4]: 20-25%
blockade of activity of intracerebral buspirone in forced swim test (rat; systemic administration of 1-PP): blocked
effect on social interaction ([5]; diazepam-naive subjects): had not shown any effect
effect in social interaction paradigm ([5]; diazepam-withdrawn animals): anxiogenic effect
